Earlier results as cited in US20160206673A1, “Composition and Method for Improving Sexual Performance” (priority 2015, published 2016).

What was measured:
[1] = tested on: men with erectile dysfunction; settings: oral medications
[2] = tested on: men with erectile dysfunction; settings: background evidence

| Compound | duration of erection helping effects [1] | effect on sexual function / erectile dysfunction [2] | side effects / safety [2] |
| --- | --- | --- | --- |
| CCCc1nn(C)c2c(=O)[nH]c(-c3cc(S(=O)(=O)N4CCN(C)CC4)ccc3OCC)nc12 [sildenafil] | up to eight |  |  |
| C[C@]12CC[C@H](O)CC1=CC[C@@H]1[C@@H]2CC[C@]2(C)C(=O)CC[C@@H]12 [DHEA, dehydroepiandrosterone] |  | increases libido in women and helps erectile dysfunction in men |  |
| N=C(N)NCCC[C@H](N)C(=O)O [L-arginine] |  | improves erectile dysfunction | nausea, cramps and diarrhea |
| COC(=O)[C@@H]1[C@H]2C[C@H]3c4[nH]c5ccccc5c4CCN3C[C@@H]2CC[C@@H]1O [Yohimbine] |  | can improve sexual dysfunction associated with a drug used to treat depression | increased blood pressure, fast or irregular heartbeat, and anxiety |
